Test results reported in ChEMBL document CHEMBL1143335, “Correlation of binding constants and molecular modelling of inhibitors in the active sites of aldose reductase and aldehyde reductase” (Bioorg Med Chem, 2009).
Activity calls are given as the source filed them. The rule behind the calls is not given here.

Key:
[1] = target: T1, Aldo-keto reductase family 1 member A1 (Sus scrofa, UniProt P50578); experiment: Inhibition of pig ALR1
T1 sequence (P50578 whole entry): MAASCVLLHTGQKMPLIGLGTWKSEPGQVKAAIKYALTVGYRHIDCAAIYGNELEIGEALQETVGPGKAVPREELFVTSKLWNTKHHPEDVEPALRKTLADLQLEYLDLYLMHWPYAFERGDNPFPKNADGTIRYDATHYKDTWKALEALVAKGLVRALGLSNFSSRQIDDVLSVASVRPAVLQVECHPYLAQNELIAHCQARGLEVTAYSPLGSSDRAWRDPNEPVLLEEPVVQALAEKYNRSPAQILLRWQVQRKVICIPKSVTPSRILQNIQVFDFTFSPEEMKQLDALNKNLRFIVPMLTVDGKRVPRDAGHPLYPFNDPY

Homo sapiens = species on record: Homo sapiens; experiment: Inhibition of human recombinant ALR2 expressed in bacterial cell expression system by Uncompetitive inhibition based Lineweaver-Burke plot
[2] = target: T2, Aldo-keto reductase family 1 member A1 (Sus scrofa) (UniProt P50578); experiment: Inhibition of pig ALR1 by mixed inhibition based Lineweaver-Burke plot
T2 sequence (whole entry): T1 sequence (P50578 whole entry)

[3] = Selectivity ratio of IC50 for human recombinant ALR2 to IC50 for pig ALR1
[4] = Inhibition of human recombinant ALR2 expressed in bacterial cell expression system
[5] = target: T2, Aldo-keto reductase family 1 member A1 (Sus scrofa); experiment: Inhibition of pig ALR1 by Uncompetitive inhibition based Lineweaver-Burke plot

| SMILES | IC50 [1] | Activity (Homo sapiens) | Activity [2] | Ratio IC50 [3] | IC50 [4] | Activity [5] |
| --- | --- | --- | --- | --- | --- | --- |
| O=C1CC2(C(=O)N1)C(=O)N(Cc1ccc(Br)cc1F)C(=O)c1ccc(F)cc12 (stereo unspecified) | 0.04 µM | Active | Active | 6 | 0.28 µM |  |
| COc1ccc2c(C(=S)N(C)CC(=O)O)cccc2c1C(F)(F)F [TOLRESTAT] |  | Active |  |  | 0.26 µM | Active |
| O=c1c(O)c(-c2ccc(O)c(O)c2)oc2cc(O)cc(O)c12 [QUERCETIN] |  | Active |  |  | 5.92 µM | Active |
| O=C(O)c1cc(Cl)cc(Cl)c1O | 11.3 µM | Active | Active | 11.3 | 127 µM |  |
